Our source for the pIC50 values is ChEMBL document CHEMBL1177844 (Eur J Med Chem, 2010).

Molecules are shown by their SMILES.

This assay can be described thus: Inhibition of ROCK.
For `CN(CCNc1ccc2[nH]ncc2c1)Cc1ccccc1`, the pIC50 (as a rule, the IC50 on a negative log10 scale, so that one unit is a factor of ten) came out at 5.1.

The molecule `c1ccc(CN2CCC(Nc3cccc4cnccc34)CC2)cc1` yielded a pIC50 of 6.85. As for `CC(C)CN1CCC(Nc2cccc3cnccc23)CC1`, the figure is 6.68. The value for `Fc1ccc(CN2CCC(Nc3cccc4cnccc34)C2)cc1` (stereo not drawn) was 7.02.

`O=[N+]([O-])c1ccc(CN2CCCC(Nc3ccc4[nH]ncc4c3)C2)cc1` (stereo not drawn): the pIC50 stood at 7.06. The value for `Nc1ccccc1CN1CCC(Nc2cccc3cnccc23)C1` (stereo not drawn) was 6.69. As for `Nc1ccc(CN2CCCC(Nc3ccc4[nH]ncc4c3)C2)cc1` (stereo not drawn), the figure is 8; as for `c1cncc(CN2CCCC(Nc3ccc4[nH]ncc4c3)C2)c1` (stereo not drawn), 7.14; as for `O=C(NCc1ccc(Cl)cc1Cl)Nc1ccc2[nH]ncc2c1`, 6.66. The value for `c1cc2[nH]ncc2cc1NC1CCNC1` (stereo not drawn) was 7; that for `c1cc2[nH]ncc2cc1NC1CCNCC1` was 6.52; that for `Clc1ccccc1CN1CCC(Nc2ccc3[nH]ncc3c2)C1` (stereo not drawn) was 7.35. `c1ccc(CCN[C@H]2CC[C@@H](Nc3cccc4cnccc34)CC2)cc1` registered a pIC50 of 6.24. `c1ccc(CN[C@H]2CC[C@@H](Nc3ccc4[nH]ncc4c3)CC2)cc1` gave a pIC50 of 6.49.

For `CCN1CCC(Nc2ccc3[nH]ncc3c2)CC1`, the pIC50 is recorded as 6.15. The value for `c1ccc(CN2CCC(Oc3ccc4[nH]ncc4c3)CC2)cc1` was 7; that for `CNC1CCC(Nc2cccc3cnccc23)CC1` (stereo not drawn) was 6.7; that for `Nc1ccccc1CN1CCCC(Nc2ccc3[nH]ncc3c2)C1` (stereo not drawn) was 7.07. Consider `c1ccc(CN[C@H]2CC[C@H](Nc3ccc4[nH]ncc4c3)CC2)cc1`, for which the pIC50 is 6.28. As for `c1coc(CN2CCCC(Nc3ccc4[nH]ncc4c3)C2)c1` (stereo not drawn), the figure is 6.74; as for `CCCN[C@H]1CC[C@H](Nc2cccc3cnccc23)CC1`, 6.74; as for `CC(C)CCN1CCCC(Nc2ccc3[nH]ncc3c2)C1` (stereo not drawn), 6.47. The value for `Fc1ccc(CN2CCCC(Nc3ccc4[nH]ncc4c3)C2)cc1F` (stereo not drawn) was 8; that for `O=C(COc1c(Cl)cc(F)cc1Cl)Nc1ccc2[nH]ncc2c1` was 6.3; that for `O=C(CC1CCCCC1)Nc1ccc2[nH]ncc2c1` was 6.05.

On to `Clc1ccccc1CN1CCC(Nc2cccc3cnccc23)C1` (stereo not drawn), for which the pIC50 was 7. `Fc1cc2[nH]ncc2cc1NC1CCCN(Cc2ccccc2)C1` (stereo not drawn) displayed a pIC50 of 6.4. `Fc1ccc(CN2CCCC(Nc3ccc4[nH]ncc4c3)C2)cc1` (stereo not drawn) showed a pIC50 of 7.6. As for `Nc1cccc(CN2CCC(Nc3cccc4cnccc34)C2)c1` (stereo not drawn), the figure is 6.56; as for `CC(C)CCN1CCCC(Nc2cccc3cnccc23)C1` (stereo not drawn), 6.57; as for `Clc1ccccc1CN1CCCC(Nc2cccc3cnccc23)C1` (stereo not drawn), 6.68. The value for `c1c[nH]c(CN2CCCC(Nc3ccc4[nH]ncc4c3)C2)c1` (stereo not drawn) was 7.96; that for `Clc1cccc(CN2CCC(Nc3ccc4[nH]ncc4c3)CC2)c1` was 6.54. Molecule `Nc1cccc(CN2CCCC(Nc3ccc4[nH]ncc4c3)C2)c1` (stereo not drawn) gave a pIC50 of 7.46. On to `CC(C)CCCN1CCCC(Nc2cccc3cnccc23)C1` (stereo not drawn), for which the pIC50 worked out at 7. The value for `O=C(COc1c(Cl)cccc1Cl)Nc1ccc2[nH]ncc2c1` was 6. As for `O=C(NC1CCN(Cc2ccccc2)CC1)c1ccc2[nH]ncc2c1`, the figure is 6.27; as for `c1ccc(CN2CCCC(Nc3ccc4[nH]ncc4c3)C2)cc1` (stereo not drawn), 7.7. In turn, `Nc1ccc(CN2CCC(Nc3cccc4cnccc34)C2)cc1` (stereo not drawn) registered a pIC50 of 6.63. As for `c1cc(N[C@H]2CC[C@H](NC3CC3)CC2)c2ccncc2c1`, the figure is 7.15; as for `Clc1ccc(CN2CCC(Nc3ccc4[nH]ncc4c3)CC2)cc1`, 6.54; as for `Clc1ccccc1CN1CCC(Nc2ccc3[nH]ncc3c2)CC1`, 6.36. As for `O=C(Nc1ccc2[nH]ncc2c1)C1CCCCC1`, the figure is 6.3; as for `c1ccc(CN2CCCC(Nc3ccc4[nH]ncc4c3)C2)nc1` (stereo not drawn), 6.62; as for `Fc1cccc(F)c1CN1CCC(Nc2cccc3cnccc23)C1` (stereo not drawn), 7.12. As for `O=C(NCc1ccccc1)Nc1ccc2[nH]ncc2c1`, the figure is 6.59. With `Clc1ccc(CN2CCCC(Nc3ccc4[nH]ncc4c3)C2)cc1` (stereo not drawn), the pIC50 was found to be 7.96.

For the molecule `c1ccc(CN2CCC(Nc3ccc4[nH]ncc4c3)C2)cc1` (stereo not drawn), the pIC50 was 7.49. Molecule `Clc1cccc(CN2CCCC(Nc3ccc4[nH]ncc4c3)C2)c1` (stereo not drawn) had a pIC50 of 7.72. As for `c1ccc(CN2CCCC(Nc3cccc4cnccc34)C2)cc1` (stereo not drawn), the figure is 6.7; as for `O=C(Nc1ccc2[nH]ncc2c1)C1CCCN(Cc2ccccc2)C1` (stereo not drawn), 7.74; as for `Cc1ccc(CN2CCCC(Nc3ccc4[nH]ncc4c3)C2)cc1` (stereo not drawn), 8.05.

In the case of `COc1ccc(CN2CCCC(Nc3ccc4[nH]ncc4c3)C2)cc1` (stereo not drawn), the negative-log IC50 (pIC50) amounted to 7.8.

For `CCCN1CCCC(Nc2ccc3[nH]ncc3c2)C1` (stereo not drawn), the pIC50 worked out at 6.11. As for `c1ccc(CCN[C@H]2CC[C@H](Nc3cccc4cnccc34)CC2)cc1`, the figure is 6.39; as for `O=C(Nc1ccc2[nH]ncc2c1)C1CCN(Cc2ccccc2)CC1`, 6.87; as for `Cc1n[nH]c2ccc(NC3CCCN(Cc4ccccc4)C3)cc12` (stereo not drawn), 6.82.

On to `c1cc(N[C@H]2CC[C@@H](NC3CC3)CC2)c2ccncc2c1`, for which the pIC50 is on record as 6.74. As for `Clc1ccc(CN2CCC(Nc3cccc4cnccc34)C2)cc1` (stereo not drawn), the figure is 7.19. The value for `CCCN1CCC(Nc2cccc3cnccc23)CC1` was 6.46; that for `O=C(NCc1c(F)cccc1F)Nc1ccc2[nH]ncc2c1` was 7.07.

`Clc1cccc(CN2CCCC(Nc3cccc4cnccc34)C2)c1` (stereo not drawn) gave a pIC50 of 6.58.

Molecule `COc1cc(CN2CCCC(Nc3ccc4[nH]ncc4c3)C2)cc(OC)c1` (stereo not drawn) gave a pIC50 of 7.1. As for `Clc1ccccc1CN1CCCC(Nc2ccc3[nH]ncc3c2)C1` (stereo not drawn), the figure is 7.89.

`Clc1cccc(CN2CCC(Nc3cccc4cnccc34)C2)c1` (stereo not drawn) came in with a pIC50 of 7.19.

For the molecule `c1ccc(CN2CCCC(Oc3ccc4[nH]ncc4c3)C2)cc1` (stereo not drawn), the pIC50 is reported as 8.

The molecule `O=C(NCc1c(Cl)cccc1Cl)Nc1ccc2[nH]ncc2c1` had a pIC50 of 7.7.

For `CCCN[C@H]1CC[C@@H](Nc2cccc3cnccc23)CC1`, the pIC50 is 6.74.
